Earlier results, collected in patent US20040052855A1, “Microparticles of biodegradable polymer encapsulating a biologically active substance and sustained release pharmaceutical formulations containing same” (priority 2003, published 2004).

Details: in water at 20-25° C.

Compound | solubility in water
ClCCl [dichloromethane] | 1.32 % (by weight)
CCOC(C)=O [ethyl acetate] | 8.70 % (by weight)
